Tests used:
Mu89 tumors = assay: Necrosis 21 days after HSV injection; type: in vivo, mice; conditions: losartan prior to HSV injection
Excerpt: (§1) Hematoxylin staining of intact tumor areas, necrosis, and HSV immunostaining is shown. Necrotic regions are indicated by black arrows. Even though there was no detectable difference in necrotic area between HSTS26T and MU89, necrosis is confined to specific regions in MU89 while there is necrotic tissue (bounded by HSV immunostaining) throughout HSTS26T tumors. Scale bar=2 mm.
(§2) To determine the relationship between virus infection, necrosis and collagen structure 21 days after the HSV injection, consecutive paraffin sections were stained with either a polyclonal HSV-1 antibody (DAKO, Glostrup Denmark) or a collagen I antibody (LF-67). For collagen I staining in paraffin sections, slides were treated with 3% hydrogen peroxide prior to antigen retrieval with Target Retrieval Solution, pH 9 (DAKO, Carpinteria, Calif.). The slides were then treated with 0.05% trypsin before the primary collagen I antibody was applied at a dilution of 1:500. Sections stained with collagen I or HSV were imaged with a light microscope.

HSTS26T tumors = assay: Necrosis 21 days after HSV injection; type: in vivo, mice; conditions: losartan prior to HSV injection
Excerpt: as §1, §2

E0771 tumors = assay: Hypoxic fraction by pimonidazole staining; set-up: species or system mice; conditions: mouse, in vivo
Protocol: Losartan decreases the hypoxic fraction in E0771 tumors (P=0.027, Student's t-test) due to the increase in oxygen delivery.
Oxygenation was then studied using phosphorescence quenching microscopy. […] This decrease in tumor hypoxia was confirmed by using pimonidazole staining (FIGS. 29D and 30). To determine if losartan also increases nanomedicine delivery, which is dependent on both vascular supply and penetration across vessel walls into tumor tissue, nanoparticle penetration was measured using intravital multiphoton microscopy. Nanoparticle penetration rates were quantified as transvascular mass flux per unit vascular surface area and transvascular concentration difference, termed as the effective permeability. […] Penetration rates are largely dependent on fluid flow through the viscoelastic and tortuous tumor interstitium, which is a function of interstitial hydraulic conductivity. It was determined that losartan also increases the hydraulic conductivity of E0771 tumors (FIG. 31), likely through its anti-matrix effects, and a mathematical model (Chauhan V P, et al., Nature Nanotechnology. 2012; advance online publication) was used to confirm that this can improve the penetration rate of all sizes of nanomedicines (FIG. 32). Thus, “microenvironmental normalization” with ARBs and ACE-Is increases the delivery of oxygen and all sizes of therapeutics to tumors. […]

Pan-02 pancreatic tumors = assay: Solid stress (tumor opening technique); set-up: species or system C57BL/6 mouse; conditions: mouse, in vivo
Excerpt: FIG. 25 is a bar graph showing that angiotensin inhibitors decrease stress in multiple tumor models. Solid stress levels in tumors after angiotensin inhibition using losartan are shown. […] Animal numbers n=10-11 (4T1 stress), n=4-8 (Pan-02 stress).
The mechanism responsible for the increase in tumor vessel perfusion by losartan was investigated. Desmoplasia, high stromal cell and matrix density, is a major contributor to the solid stress accumulation that compresses vessels (Stylianopoulos T, et al., Growth-induced mechanical stress in murine and human tumors: causes, consequences and remedies. under review. 2012). […] Moreover, losartan decreased collagen I concentration, measured based on staining intensity, in E0771 and AK4.4 tumors (FIGS. 24B-24C). […] Next, solid stress in these tumors was measured using recently established technique described in Stylianopoulos T, et al., Growth-induced mechanical stress in murine and human tumors: causes, consequences and remedies. under review. […]
Solid stress: Solid stress was measured using the tumor opening technique as described previously (Stylianopoulos T, et al., Growth-induced mechanical stress in murine and human tumors: causes, consequences and remedies. under review. 2012). […] Subsequently, each tumor was excised, washed with Hanks' Balanced Salt Solution (HBSS) and its three dimensions were measured. […]

Structure (SMILES): CCCCc1nc(Cl)c(CO)n1Cc1ccc(-c2ccccc2-c2nn[nH]n2)cc1 [losartan]
- necrosis in tumors (Mu89 tumors): two-fold increase
- necrosis in tumors (HSTS26T tumors): two-fold increase
- hypoxic fraction (E0771 tumors): decreases
- solid stress (Pan-02 pancreatic tumors): reduces solid stress
